How the values were obtained:
[1] = method code SF, from DOI: 10.1021/jm00088a007, PMID: 1588555; conditions: pH 7.4
[2] = method code SF-HPLC, from DOI: 10.1023/a:1016059008464, PMID: 8899834
[3] = not given; remark: listed apart in the source
[4] = method code SF-HPLC, from DOI: 10.1002/jccs.199500138
[5] = method code SF, from DOI: 10.3139/113.110173
[6] = method code SF-HPLC, from DOI: 10.1016/0378-5173(91)90200-8; conditions: pH 7.4
[7] = method code SF-AS, from DOI: 10.1016/s0960-894x(99)00527-2, PMID: 10571171; conditions: pH 7.0
[8] = method code SF-FL, from DOI: 10.1021/acs.jmedchem.5b00420, PMID: 26263187
[9] = method code SF-HPLC, from DOI: 10.1002/jps.2600830805, PMID: 7983590; conditions: pH 12.2
[10] = pH 6.5
[11] = not given; remark: listed apart in the source
[12] = not given; remark: listed apart in the source
[13] = not given; remark: listed apart in the source
[14] = method code SF, from DOI: 10.1021/jm00262a020, PMID: 4716184
[15] = not given; remark: listed apart in the source
[16] = method code SF, from Moerlein, M.; Dischino, D.; Raymond, N.; Weitl, L.; Welch, J. (1982). Factors affecting the cerebral uptake of gallium complexes. J Labelled Comp Radiopharm, 19(11-12)1421-1422.; conditions: pH 7.0
[17] = method code SF, from DOI: 10.1021/jm00079a001, PMID: 1732531; conditions: pH 7.4
[18] = method code SF-HPLC, from DOI: 10.1021/js9504200, PMID: 8742941; conditions: pH 7.4
[19] = method code SF-AS, from DOI: 10.1016/j.ejmech.2009.02.028, PMID: 19321234
[20] = pH 6.5; remark: listed apart in the source
[21] = method code SF-AS, from DOI: 10.1016/j.ejmech.2010.02.047, PMID: 20227799; conditions: pH 7.4
[22] = method code SF-HPLC, from DOI: 10.1016/j.ijpharm.2013.10.039, PMID: 24184034; conditions: pH 7.0

**Q.** For `COC1C(OC(C)=O)CC(=O)OC(C)CC=CC=CC(O)C(C)CC(CC=O)C1OC1OC(C)C(OC2C[C@@](C)(O)C(OC(=O)CC(C)C)C(C)O2)C(N(C)C)C1O` (stereo partly drawn), which logP is on record?
**A.** Its logP is 2.39.

**Q.** For `CCCC[C@H](O[C@@H](Cc1ccccc1)C(=O)N1CCC(OCOC)CC1)C(=O)NC(CC1CCCCC1)C(O)CC(C(=O)NCCCN1CCOCC1)C(C)C` (stereo partly drawn), which logD [1] is on record?
**A.** Its logD is 4.3.

**Q.** Which logP [2] does the source give for `CC(C)CCC[C@@H](C)[C@H]1CC[C@H]2[C@@H]3CC[C@H]4C[C@@H](CCC=C(c5cc(Cl)c(O)c(C(=O)O)c5)c5cc(Cl)c(O)c(C(=O)O)c5)CC[C@]4(C)[C@H]3CC[C@]12C` here?
**A.** Its logP is 6.94.

**Q.** For `COc1cc(C)c(S(=O)(=O)NC(CC(=O)NC2OC(CO)C(O)C(O)C2NC(C)=O)C(=O)NC(Cc2ccc(C(=N)N)cc2)C(=O)N2CCCCC2)c(C)c1C` (stereo not drawn), which logP [3] is on record?
**A.** Its logP is -1.5.

**Q.** Which logP [4] does the source give for `CC(=O)O[C@@H]1CC[C@]2(C)C3=CC[C@]4(C)[C@@H]([C@H](C)CC/C=C(\C)C(=O)O)C[C@@H](OC(C)=O)[C@@]4(C)C3=CC[C@H]2C1(C)C` here?
**A.** The logP was 2.74.

**Q.** Which logP [5] does the source give for `CCCCCCCCCCCOCCOCCOCCOCCOCCOCCOCCOCCOCCOCCOCCOCCOCCOCCOCCOCCOCCOCCOCCOCCOCCOCCOCCOCCOCCOCCOCCOCCO` here?
**A.** The logP was 0.31.

**Q.** With `CCC(C(=O)OCc1ccc(COC(=O)C(CC)C(COC(=O)C2CC2)Cc2cncn2C)cc1)C(COC(=O)C1CC1)Cc1cncn1C` (stereo not drawn) as the compound, how does the logD [6] read?
**A.** Its logD is 4.2.

**Q.** For `O=C(NCCCC(CO)(CCCNC(=O)c1ccc2cccnc2c1O)CCCNC(=O)c1ccc2cccnc2c1O)c1ccc2cccnc2c1O`, which logD [7] is on record?
**A.** Its logD is 1.2.

**Q.** Which logP [8] does the source give for `COc1cccc2c1C(=O)c1c(O)c3c(c(O)c1C2=O)CC(O)(C(=O)CO)CC3OC1CC(NC(=O)C2CCC(CN3C(=O)CC(SCCN)C3=O)CC2)C(O)C(C)O1` (stereo not drawn) here?
**A.** The logP was -0.02.

**Q.** With `CCCCC(NC(C)=O)C(=O)NC1NCCCCC(C(N)=O)NC(=O)C(Cc2c[nH]c3ccccc23)NC(=O)C(CCCC(=N)N)NC(=O)C(Cc2ccccc2)NC(=O)C(Cc2cnc[nH]2)NC1=O` (stereo not drawn) as the compound, how does the logD [9] read?
**A.** The logD was 1.1.

**Q.** Which logD [10] does the source give for `CCN1CC(C(O)C(CC2CCCCC2)NC(=O)C(Cc2cc[nH]n2)NC(=O)C(CC(=O)N2CCOCC2)Cc2ccccc2)OC1=O` (stereo not drawn) here?
**A.** The logD was 2.52.

**Q.** For `CCOc1ccc(N2CCN(CC(O)CC(Cc3ccccc3)C(=O)NC3c4ccccc4CC3O)C(C(=O)NC(C)(C)C)C2)cn1` (stereo not drawn), which logP [11] is on record?
**A.** The logP was 3.62.

**Q.** With `CC(C)Cc1ccc(C(Nc2cccc(C(=O)c3cn(CCCC(=O)O)c4ccccc34)c2)c2ccc(CC(C)C)cc2)cc1` as the compound, how does the logP [12] read?
**A.** Its logP is 3.

**Q.** With `Nc1cccc(CN2C(=O)N(c3cccc(C(=O)Nc4cnccn4)c3)C(Cc3ccccc3)C(O)C(O)C2Cc2ccccc2)c1` (stereo not drawn) as the compound, how does the logP [13] read?
**A.** The logP was 3.77.

**Q.** Which logP [14] does the source give for `CC[C@@H](C(=O)[C@@H](C)[C@@H](O)[C@H](C)CCc1ccc(C)c(O)c1C(=O)O)[C@H]1O[C@](CC)([C@H]2CC[C@](O)(CC)[C@H](C)O2)C[C@@H]1C` here?
**A.** The logP was 2.85.

**Q.** For `Cc1ccccc1NC(=O)Nc1ccc(CC(=O)N[C@@H](CCCCNC(=O)/C=C/c2cccnc2)C(=O)N[C@@H](CCCC(=O)O)C(=O)NC2(C(N)=O)CCCCC2)cc1`, which logP [15] is on record?
**A.** Its logP is 3.26.

**Q.** For `CCCCCCN(CCCCN(CCCN(CCCCCC)C(=O)c1cccc(O)c1O)C(=O)c1cccc(O)c1O)C(=O)c1cccc(O)c1O`, which logD [16] is on record?
**A.** Its logD is -1.52.

**Q.** For `C=CC[C@H](NC(=O)[C@@H](Cc1ccccc1)NS(=O)(=O)N1CCN(C)CC1)C(=O)NC(CC1CCCCC1)C(=O)C(F)(F)C(=O)NCCN1CCOCC1` (stereo partly drawn), which logD [17] is on record?
**A.** Its logD is 2.73.

**Q.** For `O=C(OCCCCCC1CCSS1)c1cc(=O)c2c(OCC(O)COc3cccc4oc(C(=O)OCCCCCC5CCSS5)cc(=O)c34)cccc2o1` (stereo not drawn), which logD [18] is on record?
**A.** The logD was 2.87.

**Q.** With `CCCCCCCCCCCCCC(=O)NC(C(=O)Nc1ccn(C2OC(CO)C(O)C2O)c(=O)n1)c1ccc(O)cc1` (stereo not drawn) as the compound, how does the logP [19] read?
**A.** Its logP is 0.9.

**Q.** For `CCCCC(OC(Cc1ccccc1)C(=O)N1CCC(OCOC)CC1)C(=O)NC(CC1CCCCC1)C(O)CC(C(=O)NCc1nn[nH]n1)C(C)C` (stereo not drawn), which logD [20] is on record?
**A.** Its logD is 2.9.

**Q.** For `COc1ccc(-c2oc3cc(C(C)=O)cc(OC)c3c(=O)c2-c2ccc(-c3ccccc3)cc2)cc1OC`, which logD [21] is on record?
**A.** The logD was 3.95.

**Q.** With `CC(=O)O[C@@H]1C(=O)[C@]23C[C@H]2C[C@H]2OC[C@@]2(OC(C)=O)[C@H]3[C@H](OC(=O)c2ccccc2)[C@]2(O)C[C@H](OC(=O)[C@H](O)[C@@H](NC(=O)OC(C)(C)C)c3ccccc3)C(C)=C1C2(C)C` as the compound, how does the logD [22] read?
**A.** Its logD is 2.06.
